Reference: PMC9497102, “Thiosemicarbazone Derivatives Developed to Overcome COTI-2 Resistance” (Cancers, 2022)
In brackets after ≈: the same amount, converted by molar mass.

Experiments:
[1] = Thermodynamic solubility in water at pH 7.4 (UV-vis); type: physicochemical; details: water at pH 7.4 (20 mM HEPES buffer), aqueous buffer, thermodynamic from solid, water pH 7.4 (20 mM HEPES), 25 °C, read-out: S (meas.)
Description: The thermodynamic solubility of COTI-NMeCy, COTI-Nme2, COTI-NH2, and COTI-2 was measured for the saturated solutions in water at pH 7.4 (20 mM HEPES buffer) at 25.0 ± 0.1 °C. The concentrations of the compounds were determined by UV-vis spectrophotometry using stock solutions of the compounds with known concentrations dissolved in pure DMSO, and 50% and 1% (v/v) DMSO/buffered aqueous solution for the calibration. The parallel artificial membrane permeability assay (PAMPA) was applied for the ligands with a Corning Gentest pre-coated PAMPA Plate System. Peff values were calculated according to the equation reported by Yu et al..

[2] = Iron(III) complex formation, UV-vis spectrophotometric titrations; type: physicochemical; details: for pFe(III)*: Fe(III) hydroxido species also considered as unbound metal, cFe = 1 μM; for pFe(III)* / pFe(III): cL = 10 μM, pH = 7.40; for pFe(III): –log[free Fe(III)] calculated at cFe = 1 μM
Description: (§1) The UV-vis spectra were recorded using an Agilent Cary 8454 diode array spectrophotometer in the 200 to 950 nm window, and the path length was varied between 1 and 5 cm, depending on the solubility (thus the applicable concentration). For the spectrophotometric titrations, the same instruments (Metrohm 665 Dosimat burette, Orion 710A pH-meter, Metrohm combined pH glass electrode) and experimental setup (ionic strength: 0.10 M (KCl); titrant: 0.10 M carbonate-free KOH solution in 30% (v/v) DMSO/H2O; samples: prepared in 30% (v/v) DMSO/H2O; calibration: method of Irving et al.; pH range: 1.0 to 13.5; and sample volume: 10 cm^3) were used as in our previous work. Argon overpressure was used for the Fe(II)-containing samples when the Fe(II) stock solution was added to the samples in tightly closed titration vessels, which were previously completely deoxygenated (for 20 min). Measurements were taken with ligands (10–80 μM, depending on solubility) in the presence of 1, 0.5, and 0.3 equiv. of Cu(II), Fe(II), and Fe(III) ions. Equilibrium constants, such as the proton dissociation constants (pKa) of the ligands, the overall stability constants (logβ) of the metal complexes, and the UV-vis spectra of the individual ligand or complex species were computed using the program PSEQUAD [18], as was the case in our previous works.

[3] = Copper(II) complex formation, UV-vis titrations and EDTA competition; type: physicochemical; details: for pCu: calculated at cM = 1 μM, cL = 10 μM, pH = 7.40; for logβ5.9′ [CuL]^+: conditional stability constant, EDTA competition at pH = 5.90; for logβ [CuL]^+: β = β’ × αH, [H+] = 10^–5.90 M
Description: as §1
The conditional stability constants (β’) of the Cu(II) complexes were calculated from competition reactions with EDTA at pH = 5.9 using MES (50 mM) when the metal:ligand ratio was 1:1 (clig = cCu between 10 and 80 μM). Individual samples were prepared in which the ligand:EDTA ratio was variable between 1:0 and 1:50. After a 3 h incubation period, UV-vis spectra were collected. The calculation of the β’ (CuL) values was performed following the same method as that in our previous work using the logβ’5.90 = 13.89 of complex [Cu(EDTA)]^2− obtained from the previously reported equilibrium constants of EDTA and its Cu(II) complex.

[4] = Zinc(II) complex formation, UV-vis spectrophotometric titrations; type: physicochemical; details: for pZn: calculated at cM = 1 μM, cL = 10 μM, pH = 7.40
[5] = Cyclic voltammetry of copper(II)–ligand (1:1) systems; type: physicochemical; details: cL = cCu(II) = 1 mM, pH 7.40, 25 °C, 90% (v/v) DMSO/H2O, 0.01 V/s scan rate
Description: Cyclic voltammograms for the Fe(III) and Cu(II) complexes were recorded in 90% (v/v) DMSO/water solution containing 1 mM ligand and 0.5 mM FeCl3 or 1 mM CuCl2 using a conventional three-electrode system under nitrogen atmosphere and a PC-Controlled Electrochemical Measurement System (EF 451). The ionic strength was 0.10 M, adjusted by TBAN. Samples were purged for 15 min with Ar before recording the cyclic voltammograms. Platinum electrodes were used as the working and auxiliary electrodes, and Ag/AgCl (3 M KCl) was applied as the reference electrode. The electrochemical potentials were converted into the normal hydrogen electrode (NHE) scale by adding 0.222 V. The instrument was calibrated with an aqueous solution of K3[Fe(CN)6] (E1/2 = +0.386 V vs. NHE). Redox potentials were obtained at different scan rates (5–25 mV/s) in the range of −0.8 to +0.1 V. The dependence of the peak current values of the square root of the scan rates is shown in Figure S5 for the iron and copper complexes of COTI-NMeCy.

SW480 cells = assay: MTT viability assay in combination with copper chelator TTM; type: cell-based, human; details: TTM 1 µM and 5 µM, 72 h
Description: For the cytotoxicity, cell viability, and proliferation studies, the 3-(4,5-dimethylthiazol-2-yl)-2,5-diphenyltetrazolium bromide (MTT) assay was utilized. Cells were seeded in 96-well plates at a density of 2 × 10^4 cells/well, with the exception of SW480/Tria, which was used at a density of 3 × 10^4 cells/well. After 24 h of recovery, cells were treated with the indicated concentration of drugs. For the drug combination experiments, verapamil and cyclosporine A (CSA) were used as […] modulators, and tetrathiomolybdate (TTM) was used as a copper chelator. The TSCs were dissolved in DMSO followed by subsequent dilutions in the medium in order to maintain a final DMSO concentration of <1%. After 72 h, the treatment solution was removed and replaced with 100 µL of MTT solution (EZ4U, Biomedica, Vienna, Austria), which was diluted 1:10 in the growth medium. A TECAN Infinite 200 Pro plate reader was used to measure the absorbance of the solution after 2–3 h incubation at 5% CO2 in an incubator at 37 °C. The anticancer activity was determined with GraphPad Prism software and indicated as IC50 values (half maximum inhibitory concentration).

[6] = T = 25.0 °C, I = 0.10 M (KCl), 30% (v/v) DMSO/H2O

Compound: S=C(N/N=C1\CCCc2cccnc21)N1CCN(c2ccccn2)CC1 [COTI-2, 4-(pyridine-2-yl)-N-([(8E)-5,6,7,8-tetrahydroquinolin-8-ylidene]amino)piperazine-1-carbothioamide]
- solubility thermodynamic [1]: 0.41 µM (≈ 0.15 µg/mL)
- pFe(III)* [2]: 10.6
- logβ [Fe(III)L2]^+ [2, 6]: 29.98 ± 0.06
- logβ [Fe(III)LH]^3+ [2, 6]: 21.16 ± 0.03
- logβ [Fe(III)L]^2+ [2, 6]: 18.02 ± 0.03
- free ligand in the presence of iron(III) ([2]; calculated distribution, 1 µM COTI-2, 2:1 ligand:iron(III), pH 7.4): 10–20%
- pFe(III) [2]: 18.6
- pCu [3]: 15.6
- logβ5.9′ [CuL]^+ [3]: 13.06 ± 0.02
- logβ [CuL]^+ [3]: 18.19
- logβ [ZnL2] [4, 6]: 23.23 ± 0.08
- logβ [ZnLH]^2+ [4, 6]: 18.54 ± 0.02
- logβ [ZnL]^+ [4, 6]: 12.85 ± 0.02
- pZn [4]: 11.9
- free ligand in the presence of zinc(II) ([4]; calculated distribution, 1 µM COTI-2, 2:1 ligand:zinc(II), pH 7.4): 10–20%
- E′ vs. NHE, copper(II)–ligand (1:1) systems [5]: -0.19 V
- impact of copper chelator TTM on anticancer activity (SW480 cells): strong protective activity

Compound: CN(C(=S)N/N=C1\CCCc2cccnc21)C1CCCCC1 [COTI-NMeCy, N-Cyclohexyl-2-(6,7-dihydroquinolin-8(5H)-ylidene)-N^4-methylhydrazine-1-carbothioamide]
- solubility thermodynamic [1]: 3.9 µM (≈ 1.23 µg/mL)
- pFe(III)* [2]: 9.9
- logβ [Fe(III)L2]^+ [2, 6]: 32.20 ± 0.03
- logβ [Fe(III)L]^2+ [2, 6]: 17.06 ± 0.02
- pFe(III) [2]: 18.0
- pCu [3]: 15.0
- logβ5.9′ [CuL]^+ [3]: 12.56 ± 0.09
- logβ [CuL]^+ [3]: 19.08
- logβ [ZnL2] [4, 6]: 26.32 ± 0.09
- logβ [ZnL]^+ [4, 6]: 12.94 ± 0.04
- pZn [4]: 12.1
- E′ vs. NHE, copper(II)–ligand (1:1) systems [5]: -0.22 V
- impact of copper chelator TTM on anticancer activity (SW480 cells): strong protective activity

Compound: CN(C)C(=S)NN=C1CCCc2cccnc21 (mixture of isomers) [COTI-NMe2, 2-(6,7-Dihydroquinolin-8(5H)-ylidene)-N^4,N^4-dimethylhydrazine-1-carbothioamide]
- solubility thermodynamic [1]: 417 µM
- pFe(III)* [2]: 11.1
- logβ [Fe(III)L2]^+ [2, 6]: 32.77 ± 0.03
- logβ [Fe(III)L]^2+ [2, 6]: 17.25 ± 0.02
- pFe(III) [2]: 19.2
- pCu [3]: 14.7
- logβ5.9′ [CuL]^+ [3]: 12.23 ± 0.05
- logβ [CuL]^+ [3]: 18.42
- logβ [ZnL2] [4, 6]: 25.24 ± 0.08
- logβ [ZnL]^+ [4, 6]: 13.02 ± 0.04
- pZn [4]: 11.7
- E′ vs. NHE, copper(II)–ligand (1:1) systems [5]: -0.24 V
- impact of copper chelator TTM on anticancer activity (SW480 cells): strong protective activity
